For one data set, the target named is T1, HRV-14 3CP (Human rhinovirus 14, UniProt P03303).
T1 construct: The 2A and 3C protease (3CP) process this polyprotein into its functional viral proteins in HRV
As to the kind of experiment: 3CP enzyme inhibition assay. Format: biochemical. To be noted: Table 1; Serotype 14; NI = no inhibition. The text has this: 3CP Inhibition Assays and Antiviral Assays The details of the 3CP enzyme assays used and the antiviral assays used are outlined in Dragovich, P. S., Webber, S. E, Babine, R. E., Fuhrman, S. A., Patick, A. K., Matthews, D. A., Lee, C. A., Reich, S. H., Prins, T. J., Marakovits, J. T., Littlefield, E. S., Zhou, R., Tikhe, J., Ford, C. E., Wallace, M. B., Meador, III, J. W., Ferre, R., Brown, E. L., Binford, S. L, Harr, , J. E. V., DeLisle, D. M. and Worland, S. T. Structure-Based Design, Synthesis, and Biological Evaluation of Irreversible Human Rhinovirus 3C Protease Inhibitors. 1. Michael Acceptor Structure-Activity Studies J. Med. Chem. 1998,41, 2806, the disclosure of which is incorporated by reference herein.

T1 sequence (P03303 1538-1719): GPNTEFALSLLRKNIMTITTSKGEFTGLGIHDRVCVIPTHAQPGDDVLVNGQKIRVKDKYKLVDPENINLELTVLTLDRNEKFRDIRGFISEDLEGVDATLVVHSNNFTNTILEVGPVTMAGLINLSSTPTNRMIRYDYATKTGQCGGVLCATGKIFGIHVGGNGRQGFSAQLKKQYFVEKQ

Take `NC(=O)c1cccc(C=CC(=O)OCc2ccccc2)c1` [Compound 3, 3-(3-Carbamoyl-phenyl)-adrylic acid benzyl ester]: on HRV-14 3CP, the “Kobs/[I]” value is 25 M⁻¹ s⁻¹. Besides, the CC50 (in general, the concentration that lowers cell viability or growth by half) with H1-HeLa cells was more than 100 µM.

These data come from patent publication US6369226B1, “Substituted benzamide inhibitors of rhinovirus 3C protease” (Agouron Pharmaceuticals, Inc., priority 1999, dated 2002).
